Reference: ChEMBL document CHEMBL4622963, “Optimization of Nicotinamides as Potent and Selective IRAK4 Inhibitors with Efficacy in a Murine Model of Psoriasis” (ACS Med Chem Lett, 2020)

How the values were obtained:
[1] = target: T1, Mast/stem cell growth factor receptor Kit (Homo sapiens, UniProt P10721); assay: Inhibition of cKit (unknown origin) by functional based assay
[2] = AUC in mouse at 2 mg/kg, po via gavage measured up to 24 hrs by LC-MS analysis; assay type: ADME, organism-based; set-up: time < 24 hr, dose 2 mg/kg, route oral; conditions: in vivo
[3] = Permeability across apical to basolateral side in human Caco2 cells; conditions: Caco-2
[4] = Half life in mouse at 2 mg/kg, iv administered as infusion or 2 mg/kg, po via gavage measured up to 24 hrs by LC-MS analysis; assay type: ADME, organism-based; conditions: in vivo
[5] = target: T2, Interleukin-1 receptor-associated kinase 4 (Homo sapiens, UniProt Q9NWZ3); assay: Inhibition of IRAK4 (unknown origin) using FL-IPTSPITTTYFFFKKK peptide and ATP as substrate incubated for 60 mins by fluorescence based caliper assay
T2 sequence (Q9NWZ3 whole entry): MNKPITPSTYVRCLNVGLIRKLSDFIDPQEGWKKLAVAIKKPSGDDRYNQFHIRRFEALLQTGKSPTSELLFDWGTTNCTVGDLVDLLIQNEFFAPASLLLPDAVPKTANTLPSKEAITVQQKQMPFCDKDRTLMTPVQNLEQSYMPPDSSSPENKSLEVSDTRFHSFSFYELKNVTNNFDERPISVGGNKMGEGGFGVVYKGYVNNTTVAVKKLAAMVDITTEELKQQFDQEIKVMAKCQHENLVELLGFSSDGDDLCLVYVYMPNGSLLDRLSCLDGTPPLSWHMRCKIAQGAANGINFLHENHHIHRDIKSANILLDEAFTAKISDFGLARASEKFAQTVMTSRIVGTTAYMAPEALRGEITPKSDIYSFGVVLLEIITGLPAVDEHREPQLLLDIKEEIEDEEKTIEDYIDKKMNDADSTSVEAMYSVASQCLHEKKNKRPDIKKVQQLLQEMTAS

[6] = AUC in mouse at 2 mg/kg, iv administered as infusion measured up to 24 hrs by LC-MS analysis; assay type: ADME, organism-based; set-up: time < 24 hr, dose 2 mg/kg, route intravenous; conditions: in vivo
[7] = target: T1, Mast/stem cell growth factor receptor Kit; assay: Inhibition of recombinant N-terminal GST-tagged human cKit (544 to end residues) expressed in baculovirus infected Sf21 cells
[8] = Stability in human liver microsomes assessed as parent compound remaining; assay type: ADME, Microsome
[9] = Stability in mouse liver microsomes assessed as parent compound remaining measured after 10 mins; assay type: ADME, Microsome; conditions: read-out: Stability
Homo sapiens [10] = organism: Homo sapiens; assay: Selectivity index, ratio of IC50 for N-terminal His6-tagged human full length recombinant LCK expressed in baculovirus infected Sf21 cells to IC50 for IRAK4 (unknown origin)
[11] = target: Mast/stem cell growth factor receptor Kit (Homo sapiens, UniProt P10721, V559D/T670I); assay: Inhibition of recombinant human partial length cKit Val559Asp/Thr670Ile double mutant expressed in bacterial expression system
Sequence of Mast/stem cell growth factor receptor Kit (Homo sapiens, UniProt P10721, V559D/T670I) (P10721 26-976 V559D/T670I limits assumed): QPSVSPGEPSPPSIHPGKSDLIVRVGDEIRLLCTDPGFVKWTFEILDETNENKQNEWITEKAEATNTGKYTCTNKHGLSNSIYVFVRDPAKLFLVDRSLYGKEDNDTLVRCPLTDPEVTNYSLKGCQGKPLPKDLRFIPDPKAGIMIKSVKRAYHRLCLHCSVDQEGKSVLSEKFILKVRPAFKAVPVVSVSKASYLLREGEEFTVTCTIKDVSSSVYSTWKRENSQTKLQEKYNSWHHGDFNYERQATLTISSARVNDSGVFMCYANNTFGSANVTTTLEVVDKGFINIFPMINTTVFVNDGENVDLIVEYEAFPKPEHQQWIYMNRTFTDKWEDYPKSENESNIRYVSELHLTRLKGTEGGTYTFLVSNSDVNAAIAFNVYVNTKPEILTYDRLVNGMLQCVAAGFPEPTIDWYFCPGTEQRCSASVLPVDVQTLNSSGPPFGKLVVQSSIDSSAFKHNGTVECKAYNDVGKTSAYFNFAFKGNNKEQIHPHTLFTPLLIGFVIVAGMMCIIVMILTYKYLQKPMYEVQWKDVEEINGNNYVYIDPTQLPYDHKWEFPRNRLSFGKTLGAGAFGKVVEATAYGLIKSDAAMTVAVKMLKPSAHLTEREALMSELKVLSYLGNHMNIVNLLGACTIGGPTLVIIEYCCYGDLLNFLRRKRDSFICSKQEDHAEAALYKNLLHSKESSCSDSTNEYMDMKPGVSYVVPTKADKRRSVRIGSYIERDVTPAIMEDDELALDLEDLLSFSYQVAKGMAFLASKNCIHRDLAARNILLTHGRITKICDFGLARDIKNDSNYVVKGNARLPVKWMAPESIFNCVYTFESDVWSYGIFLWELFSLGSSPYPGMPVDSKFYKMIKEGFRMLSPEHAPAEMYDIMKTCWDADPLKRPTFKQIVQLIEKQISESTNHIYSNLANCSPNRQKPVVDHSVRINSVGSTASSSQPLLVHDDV

Homo sapiens [12] = organism: Homo sapiens; assay: Selectivity index, ratio of IC50 for recombinant N-terminal GST-tagged human cKit (544 to end residues) expressed in baculovirus infected Sf21 cells to IC50 for IRAK4 (unknown origin)
[13] = target: TRAF2 and NCK-interacting protein kinase (Homo sapiens, UniProt Q9UKE5); assay: Inhibition of human wild type partial length TNIK (D4-K311 residues) expressed in bacterial expression system
Sequence of TRAF2 and NCK-interacting protein kinase (Q9UKE5 whole entry, the tested form may be a part): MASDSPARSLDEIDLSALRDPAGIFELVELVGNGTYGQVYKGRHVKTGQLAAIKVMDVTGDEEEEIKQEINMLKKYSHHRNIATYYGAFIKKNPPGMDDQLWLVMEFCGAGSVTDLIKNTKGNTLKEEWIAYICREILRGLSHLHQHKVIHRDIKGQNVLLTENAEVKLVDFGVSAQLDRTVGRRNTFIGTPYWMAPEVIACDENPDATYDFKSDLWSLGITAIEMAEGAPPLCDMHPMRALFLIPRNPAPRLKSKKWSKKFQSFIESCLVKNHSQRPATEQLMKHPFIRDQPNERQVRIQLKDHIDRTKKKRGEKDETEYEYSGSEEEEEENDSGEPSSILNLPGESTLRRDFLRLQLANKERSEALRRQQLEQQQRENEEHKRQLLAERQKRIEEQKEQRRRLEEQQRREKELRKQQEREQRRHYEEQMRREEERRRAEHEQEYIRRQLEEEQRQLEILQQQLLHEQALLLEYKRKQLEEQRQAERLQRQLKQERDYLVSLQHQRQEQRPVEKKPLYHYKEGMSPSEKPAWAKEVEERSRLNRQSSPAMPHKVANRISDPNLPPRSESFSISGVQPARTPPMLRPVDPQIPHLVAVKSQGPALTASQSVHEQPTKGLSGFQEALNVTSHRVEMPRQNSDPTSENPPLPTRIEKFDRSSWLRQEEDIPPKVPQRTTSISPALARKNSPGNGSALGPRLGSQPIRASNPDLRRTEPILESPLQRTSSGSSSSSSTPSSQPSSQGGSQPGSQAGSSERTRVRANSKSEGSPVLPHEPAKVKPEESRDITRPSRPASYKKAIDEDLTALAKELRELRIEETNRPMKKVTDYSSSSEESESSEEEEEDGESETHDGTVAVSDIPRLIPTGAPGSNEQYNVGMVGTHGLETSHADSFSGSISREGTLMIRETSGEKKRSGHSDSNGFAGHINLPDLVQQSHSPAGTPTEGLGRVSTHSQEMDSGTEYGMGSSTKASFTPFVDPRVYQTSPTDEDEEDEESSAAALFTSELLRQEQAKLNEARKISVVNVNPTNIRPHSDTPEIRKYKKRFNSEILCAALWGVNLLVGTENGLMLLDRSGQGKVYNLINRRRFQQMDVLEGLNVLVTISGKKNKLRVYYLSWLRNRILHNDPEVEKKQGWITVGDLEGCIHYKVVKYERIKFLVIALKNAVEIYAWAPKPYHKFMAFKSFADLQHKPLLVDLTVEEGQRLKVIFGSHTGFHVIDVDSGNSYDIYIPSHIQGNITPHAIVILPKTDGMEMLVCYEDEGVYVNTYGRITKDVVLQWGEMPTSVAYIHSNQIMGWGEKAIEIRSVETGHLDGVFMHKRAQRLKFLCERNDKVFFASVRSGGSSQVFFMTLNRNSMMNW

[14] = target: T2, Interleukin-1 receptor-associated kinase 4; assay: Inhibition of IRAK4 in human whole blood assessed as inhibition of LTA-induced IL-6 production preincubated for 30 mins followed by LTA-stimulation and measured after 5 hrs by ELISA; assay type: tissue-based
[15] = Volume of distribution at steady state in mouse at 2 mg/kg, iv administered as infusion or 2 mg/kg, po via gavage measured up to 24 hrs by LC-MS analysis; assay type: ADME, organism-based; conditions: in vivo, read-out: Vdss
[16] = target: Mast/stem cell growth factor receptor Kit (Homo sapiens, UniProt P10721, V559D); assay: Inhibition of recombinant human partial length cKit Val559Asp mutant expressed in bacterial expression system
Sequence of Mast/stem cell growth factor receptor Kit (Homo sapiens, UniProt P10721, V559D) (P10721 26-976 V559D limits assumed): as the sequence (P10721 26-976 V559D/T670I limits assumed) above, with I645T counted along it

[17] = target: T3, Mitogen-activated protein kinase kinase kinase 7 (Homo sapiens, UniProt O43318); assay: Inhibition of human wild type partial length TAK1 (1 to 303 residues) expressed in mammalian expression system
T3 sequence (O43318 whole entry): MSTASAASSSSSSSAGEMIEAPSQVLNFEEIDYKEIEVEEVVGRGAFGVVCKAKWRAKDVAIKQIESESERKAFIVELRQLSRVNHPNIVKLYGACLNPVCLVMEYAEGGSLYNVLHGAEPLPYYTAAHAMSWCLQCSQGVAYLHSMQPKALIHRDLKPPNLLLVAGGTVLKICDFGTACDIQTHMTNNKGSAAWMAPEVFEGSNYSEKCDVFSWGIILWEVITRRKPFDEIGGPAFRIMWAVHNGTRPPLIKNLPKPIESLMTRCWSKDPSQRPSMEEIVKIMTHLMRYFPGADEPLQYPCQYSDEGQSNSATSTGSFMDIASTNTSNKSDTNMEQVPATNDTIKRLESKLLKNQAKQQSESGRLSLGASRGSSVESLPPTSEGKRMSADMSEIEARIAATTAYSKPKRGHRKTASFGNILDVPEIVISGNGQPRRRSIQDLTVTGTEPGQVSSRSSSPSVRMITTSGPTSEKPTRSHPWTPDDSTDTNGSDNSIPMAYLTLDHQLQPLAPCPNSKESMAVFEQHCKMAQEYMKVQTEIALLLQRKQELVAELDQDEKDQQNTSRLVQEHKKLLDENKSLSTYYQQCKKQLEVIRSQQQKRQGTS

[18] = Oral bioavailability in mouse at 2 mg/kg administered via gavage measured up to 24 hrs by LC-MS analysis; assay type: ADME, organism-based; conditions: in vivo
[19] = Clearance in mouse at 2 mg/kg, iv administered as infusion or 2 mg/kg, po via gavage measured up to 24 hrs by LC-MS analysis; assay type: ADME, organism-based; conditions: in vivo
[20] = target: T2, Interleukin-1 receptor-associated kinase 4; assay: Inhibition of IRAK4 in human PBMC assessed as inhibition of LTA-induced IL-6 production preincubated for 30 mins followed by LTA-stimulation and measured after 5 hrs by ELISA; assay type: cell-based

T1 sequence (P10721 whole entry): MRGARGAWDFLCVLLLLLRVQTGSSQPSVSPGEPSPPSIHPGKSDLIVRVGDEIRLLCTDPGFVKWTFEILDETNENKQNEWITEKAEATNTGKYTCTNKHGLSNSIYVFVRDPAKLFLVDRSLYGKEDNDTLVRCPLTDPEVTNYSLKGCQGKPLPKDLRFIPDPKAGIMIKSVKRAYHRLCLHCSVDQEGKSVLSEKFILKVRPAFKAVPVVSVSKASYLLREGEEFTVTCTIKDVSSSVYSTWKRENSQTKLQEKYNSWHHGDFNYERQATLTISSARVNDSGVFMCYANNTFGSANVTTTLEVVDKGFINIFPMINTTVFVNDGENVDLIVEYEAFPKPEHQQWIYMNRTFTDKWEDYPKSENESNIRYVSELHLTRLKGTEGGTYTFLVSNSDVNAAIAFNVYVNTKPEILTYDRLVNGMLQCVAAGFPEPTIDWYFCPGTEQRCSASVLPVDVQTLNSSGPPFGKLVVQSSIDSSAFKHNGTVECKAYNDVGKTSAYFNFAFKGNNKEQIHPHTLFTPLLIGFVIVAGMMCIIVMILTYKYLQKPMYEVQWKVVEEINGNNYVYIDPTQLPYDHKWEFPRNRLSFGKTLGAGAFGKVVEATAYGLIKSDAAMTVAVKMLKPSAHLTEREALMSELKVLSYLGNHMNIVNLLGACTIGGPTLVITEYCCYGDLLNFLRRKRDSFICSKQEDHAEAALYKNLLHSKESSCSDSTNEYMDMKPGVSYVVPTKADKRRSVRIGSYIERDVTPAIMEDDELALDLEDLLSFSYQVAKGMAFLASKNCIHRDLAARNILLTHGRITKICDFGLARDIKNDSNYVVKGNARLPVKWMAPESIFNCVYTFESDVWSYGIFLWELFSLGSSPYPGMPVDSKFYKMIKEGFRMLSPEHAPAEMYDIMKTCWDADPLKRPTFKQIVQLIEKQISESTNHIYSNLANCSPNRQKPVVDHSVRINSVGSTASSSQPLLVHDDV

Work on `CC(C)Nc1cc(Nc2ccn3nccc3n2)ncc1C(=O)NC[C@@H](F)C(C)(C)O` yielded an IC50 [1] of 170 nM, an AUC at 24 h [2] of 0.9 µM·h and a Papp A→B [3] of 6.9 ×10⁻⁶ cm/s. The half-life [4] was 2 h, the IC50 [5] was 3.2 nM and the AUC at 24 h [6] was 2.4 µM·h. The IC50 [7] was 24 nM, the Stability [8] was 100% and the remaining at 10 min [9] was 89%. The Ratio IC50 (Homo sapiens [10]) was 130, the “inhibition (INH)” value [11] was “Not Active” and the Ratio IC50 (Homo sapiens [12]) was 8. The IC50 [13] was 8 nM, the IC50 [14] was 340 nM and the Vd [15] was 3 L/kg. For the same compound, the “inhibition (INH)” value [16] was “Active”, the IC50 [17] was 190 nM and the bioavailability [18] was 36%. It also gave a clearance [19] of 33 mL/min/kg and an IC50 [20] of 100 nM.
